In patent US12570627B2, “Pharmaceutical composition in which production of impurities is suppressed” (Shionogi & Co., Ltd., priority 2020, dated 2026):
Values joined by “and” are separate entries in the source; they are usually repeats but may differ in a detail not shown here. Equal values may be shown once.

Key:
Type in all cases: physicochemical
[1] = Measurement of content ratio of compound represented by Formula (III) contained in crystal (Test Example 1); conditions: crystal as produced
Protocol: The content ratio of the compound represented by Formula (III) in the dihydrate crystal of the compound represented by Formula (I) produced in Example L was determined by the following method.
In Examples 1 to 4 and 6 and Reference Examples 1 to 2, the content ratio was determined in the same manner.
(§1) A standard sample of the compound represented by Formula (III) was prepared by the following method, • Step 1: About 25 µg of the compound represented by Formula (III) was weighed precisely, and dissolved in a mixed solution of N,N-dimethylformamide and water (9:1) to make exactly 20 mL, • Step 2: One milliliter of the solution of Step 1 was accurately taken, and a mixed solution of N,N-dimethylformamide and water (9:1) was added to make exactly 50 mL. • Step 3: Two milliliters of the solution of Step 2 was accurately taken, and a mixed solution of N,N-dimethylformamide and water (9:1) was added to make exactly 20 mL, thereby obtaining a standard solution. (Preparation of Sample Solution)
(§2) About 125 to 600 mg of a sample was weighed precisely, and dissolved by adding a mixed solution of N,N-dimethylformamide and water (9:1) to make exactly 5 mL.
(§3) An amount of the compound represented by Formula (III) was measured with a liquid chromatograph according to the following method and conditions. • Measuring instrument: UHPLC (NexeraX2, SHIMADZU) • Detector: UV • Measurement wavelength: 271 nm • Column: ACQUITY UPLC BEH SHIELD PR18, 1.7 μm (2.1×100 mm) • Column temperature: constant temperature at near 40° C. • Mobile phase A: 20 mmol/L potassium dihydrogen phosphate aqueous solution • Mobile phase B: acetonitrile for liquid chromatography • Feed of mobile phase: The mixing ratio of mobile phase A and mobile phase B was changed as shown in Table 1 to control concentration gradient.
(§4) • Flow rate: 0.3 mL/min • Injection amount 2 μL • Sample cooler temperature: 5° C. • Area measurement range: 11 minutes after injection • Needle washing solution: mixed solution of N,N-dimethylformamide and water (9:1) (Calculation Formula) Content (ppm) of compound represented by Formula(III)=MS/MT×AT/AS×1/2000×1000000 (Mathematical formula 4) • MS: Weighing amount (mg) of compound represented by Formula (III) • MT: Weighing amount (mg) of sample • AS: Peak area of compound represented by Formula (III) obtained from standard solution • AT: Peak area of compound represented by Formula (III) obtained from sample solution • 1/2000: Dilution ratio

[2] = 90% particle size distribution, laser diffraction HELOS & RODOS (Test Example 2); conditions: dispersion pressure 4 bar
Protocol: A 90% particle size distribution in the production method of Reference Example 1 was determined by the following method.
In Examples 1 to 6 and Reference Example 3, the 90% particle size distribution was determined in the same manner.
A 90% particle size distribution was measured according to the following method and conditions. • Measuring instrument: laser diffraction particle size distribution measuring apparatus (HELOS & RODOS, Sympatec GmbH) • Dispersion pressure: 4 bar • Feed: 50% • Rotation: 20% • Focal length: 50 mm • Trigger condition: reference duration 2 seconds • Time Base 100 ms • Start Optical concentration ≥1.0% • Stop Optical concentration ≤1.0% • Measurement range: R2

[3] = Measurement of content ratio of compound represented by Formula (III) contained in solution; increase during crystallization operation (Test Example 3); conditions: for Increased amount of content ratio of compound represented by Formula (III) during crystallization operation: total in filtrate and crystal minus solution before crystallization; for Total amount of the content ratio of compound represented by Formula (III) contained in the filtrate after filtration and the obtained crystal: after crystallization; for Content ratio of compound represented by Formula (III) in the solution before crystallization: reaction solution / dissolved anhydrate crystal
Protocol: The content ratio of the compound represented by Formula (JII) in the solution in the production method of Example 1 was determined by the following method.
In Example 4 and Reference Examples 2 to 3, the content ratio was determined in the same manner.
as §1, with “the following method. • Step” for “the following method, • Step”, “About 25 mg of the” for “About 25 µg of the”, “exactly 20 mL. • Step” for “exactly 20 mL, • Step”, “exactly 20 ml, thereby obtaining” for “exactly 20 mL, thereby obtaining”
About 60 to 1300 mg of a sample was weighed precisely, and dissolved by adding a mixed solution of N,N-dimethylformamide and water (9:1) to make exactly 5 mL.
as §3, with “SHIELD PF18,” for “SHIELD PR18,”, “Table 2” for “Table 1”
• Flow rate: 0.3 mL/min • Injection amount: 2 μL • Sample cooler temperature: 5° C. • Area measurement range: 11 minutes after injection • Needle washing solution: mixed solution of N,N-dimethylformamide and water (9:1) (Calculation formula) Content (ppm) of compound represented by Formula(III)=MS/MT×AT/AS×1/2000×YT/YS×1000000 (Mathematical formula 3) • MS: Weighing amount (mg) of compound represented by Formula (III) • MT: Weighing amount (mag) of sample • AS: Peak area of compound represented by Formula (III) obtained from standard solution • AT: Peak area of compound represented by Formula (III) obtained from sample solution • YS: Yield (g) of compound represented by Formula (I) • YT: Total weight (g) of sample • 1/2000: Dilution ratio

[4] = Stability testing of crystal (Test Example 4); conditions: for Content ratio of compound represented by Formula (III), 1M: protect from light, double polyethylene bag with desiccant, metal can
Protocol: as §1, §2, §3, §4
The samples obtained in Example 1 and Reference Example 1 were subjected to a stability testing to evaluate the content of the compound represented by Formula (III).
The storage conditions and the packaging form of Example 1 are shown in Table 3, and the storage conditions and the packaging form of Reference Example 1 are shown in Table 4.
Samples were placed in a polyethylene bag (Suntec-LD M2206 (additive free) 100×210×0.1 mm, TOWA KAKO CO., LTD.) and tightened with Convex (CV100N, SHIBAKEISOZAI CO., LTD.). This bag was further placed in a polyethylene (Suntec-LD M2206 (additive free) 100×210×0.1 mm, TOWA KAKO CO., LTD.) bag and similarly tightened with Convex (CV100N, SHIBAKEISOZAI CO., LTD.). The above samples under the same storage conditions were put together in a metal can (3dia, a stainless steel can with an inner diameter of 16 cm and a depth of 18 cm). • Double polyethylene bag, Convex (containing desiccant), metal can:
Samples were placed in a polyethylene bag (Suntec-LD M2206 (additive free) 100×210×0.1 mm, TOWA KAKO CO., LTD.) and tightened with Convex (CV100N, SHIBAKEISOZAI CO., LTD.). This bag was further placed in a polyethylene bag (Suntec-LD M2206 (additive free) 100×210×0.1 mm, TOWA KAKO) CO., LTD.) and similarly tightened with Convex (CV100N, SHIBAKEISOZAI CO., LTD.). The samples under the same storage conditions were put together in a metal can (3dia, a stainless steel can with an inner diameter of 16 cm and a depth of 18 cm) containing silica gel (using raw materials manufactured by Fuji Silysia Chemical Ltd., contained in 1 g bag).
The content of the compound represented by Formula (III) was confirmed in the same manner as in Test Example 1.

C[C@@H](Cn1c(=O)[nH]/c(=N\c2ccc(Oc3ccccn3)cc2)n(Cc2ccc(Cl)cc2)c1=O)C(=O)O [Example 2]
Content ratio of compound represented by Formula (III) in the obtained crystal [1]: 1.0 ppm | 90% particle size distribution [2]: 7.17 μm

C[C@@H](Cn1c(=O)[nH]/c(=N\c2ccc(Oc3ccccn3)cc2)n(Cc2ccc(Cl)cc2)c1=O)C(=O)O [Example 3]
Content ratio of compound represented by Formula (III) in the obtained crystal [1]: 1.5 ppm | 90% particle size distribution [2]: 6.48 μm

C[C@@H](Cn1c(=O)[nH]/c(=N\c2ccc(Oc3ccccn3)cc2)n(Cc2ccc(Cl)cc2)c1=O)C(=O)O [Example 4]
Content ratio of compound represented by Formula (III) in the obtained crystal [1]: 1.30 ppm | Increased amount of content ratio of compound represented by Formula (III) during crystallization operation [3]: 8.7 ppm

C[C@@H](Cn1c(=O)[nH]/c(=N\c2ccc(Oc3ccccn3)cc2)n(Cc2ccc(Cl)cc2)c1=O)C(=O)O [Example 5]
90% particle size distribution [2]: 27.57 μm

C[C@@H](Cn1c(=O)[nH]/c(=N\c2ccc(Oc3ccccn3)cc2)n(Cc2ccc(Cl)cc2)c1=O)C(=O)O [Example 6]
Content ratio of compound represented by Formula (III) in the obtained crystal [1]: 1.0 ppm | 90% particle size distribution [2]: 61.22 μm

C[C@@H](Cn1c(=O)[nH]/c(=N\c2ccc(Oc3ccccn3)cc2)n(Cc2ccc(Cl)cc2)c1=O)C(=O)O [Example L]
Content ratio of compound represented by Formula (III) in the obtained crystal [1]: not detected | Content ratio of compound represented by Formula (III) in the obtained crystal ([1]; listed as dihydrate crystal of the compound represented by Formula (I)): not contained or is below a detection limit

C[C@@H](Cn1c(=O)[nH]/c(=N\c2ccc(Oc3ccccn3)cc2)n(Cc2ccc(Cl)cc2)c1=O)C(=O)O [Reference Example 1]
Increased amount of compound represented by Formula (III) from the start of the test ([4]; 40±2° C./75±5% RH, 1 month): 12 ppm | Content ratio of compound represented by Formula (III), 3M ([4]; 40±2° C./75±5% RH, 3 months): 18 ppm | Increased amount of compound represented by Formula (III) from the start of the test ([4]; 40±2° C./75±5% RH, 3 months): 15 ppm | Content ratio of compound represented by Formula (III), 3M ([4]; 40 ± 2° C./75 ± 5% RH, 3 months, listed as Reference example 1): 18 ppm | Content ratio of compound represented by Formula (III), 1M ([4]; 40 ± 2° C./75 ± 5% RH, 1 month): 15 ppm | Content ratio of compound represented by Formula (III), 1M ([4]; 40 ± 2° C./75 ± 5% RH, 1 month, listed as Reference example 1): 15 ppm | Content ratio of compound represented by Formula (III), Initial ([4]; start of test): 3 ppm | 90% particle size distribution [2]: 14.53 μm

C[C@@H](Cn1c(=O)[nH]/c(=N\c2ccc(Oc3ccccn3)cc2)n(Cc2ccc(Cl)cc2)c1=O)C(=O)O [Reference Example 2]
Content ratio of compound represented by Formula (III) in the obtained crystal [1]: 1.3 ppm and 1.30 ppm | Total amount of the content ratio of compound represented by Formula (III) contained in the filtrate after filtration and the obtained crystal [3]: 316.7 ppm | Content ratio of compound represented by Formula (III) in the solution before crystallization [3]: 178.9 ppm

C[C@@H](Cn1c(=O)[nH]/c(=N\c2ccc(Oc3ccccn3)cc2)n(Cc2ccc(Cl)cc2)c1=O)C(=O)O [Reference Example 3]
Total amount of the content ratio of compound represented by Formula (III) contained in the filtrate after filtration and the obtained crystal [3]: 252.5 ppm | Content ratio of compound represented by Formula (III) in the solution before crystallization [3]: 82.0 ppm | Increased amount of content ratio of compound represented by Formula (III) during crystallization operation [3]: 170.5 ppm | 90% particle size distribution [2]: 169.84 μm
